Where “and” joins values, the source holds several entries; their conditions need not be identical. Identical values can stand only once. Like-named read-outs stand apart in the source and are kept apart here.
Assays:
total count [1] = assay: Example 2, Table 3: total count after hydrogen peroxide pulses with air or ozone, with or without ozone preheat; type: cell-based; settings: HPO to 75 mbar + air to 500 mbar 40° C. one pulse, control 130,000
Procedure: (§1) In table 3, the samples were all preheated to, 40° C. Some of the samples, indicated “O3 preheat” were preheated in the presence of ozone at atmospheric pressure. […] Air was subsequently introduced to a pressure of 500 mbar. Then the chamber was evacuated.

yeasts & molds = assay: Example 2, Table 3: yeast and mold count after hydrogen peroxide pulses with air or ozone, with or without ozone preheat; type: cell-based; settings: HPO to 75 mbar + air to 500 mbar 40° C. one pulse, control 1,950
Procedure: as §1

total count [2] = settings: for Total Count: HPO to 60 mbar 6 minutes, air 500 mbar 6 minutes, 40°, control 1,350,000; for Total Count Fold-Reduction: versus control
Procedure: (§2) For two of the samples, no preheating was performed, and for two of the samples, preheating was performed. Preheating involved warming the plant matter in the chamber at 40° C. for 5 minutes. Either one or two pulses of sterilant were performed. All pulses were performed at 40°. Before each pulse, the pressure in the chamber was reduced to 1 mbar.
(§3) Then, air was added and pressure was maintained at 500 mbar for 6 minutes.

Yeast & Mold = settings: for Yeast & Mold: HPO to 60 mbar 6 minutes, air 500 mbar 6 minutes, 40°, control 1,150,000; for Yeast & Mold Fold-Reduction: versus control
Procedure: as §2, §3

Total pathogen = assay: Example 4: total pathogen count after NaDCC and/or H2O2 pulses; type: cell-based; settings: for Total pathogen Count: control 490,000; for Fold-Reduction: versus control
Procedure: (§4) Aqueous solutions of NaDCC at variating concentrations from 1% [w/w] up to 5% [w/w] were prepared. […] Table 5 describes various sterilants and their effects:
(§5) Each pulse with disinfectant consisted of vacuum to 1 mbar, then introduction of a sterilant to 100 mbar, 6 minutes of keeping the sterilant at that pressure, introduction of air to 500 mbar, then vacuum.

Yeast & Molds = assay: Example 4: yeast and molds count after NaDCC and/or H2O2 pulses; type: cell-based; settings: control 152,000
Procedure: as §4, §5

yeast and mold = settings: hydrogen peroxide solution 50% in water, 40° C. 40 ml + 1 m; control 20,800; listed as H2O2
Procedure: (§6) A control sample was used, which was not treated, to show microbial load before treatment.
(§7) In each of the trials above, the H2O2 solution was introduced over a period of 3 minutes until a pressure of 70-100 mbar, by introduction of 4 injections, each injection of 10 ml. […] Some of the batches indicating “vent 700” were slowly vented to 700 mbar with air.

total count [3] = settings: hydrogen peroxide solution 50% in water, control 208,800
Procedure: as §6, §7

Pseudomonas aeruginosa = settings: 15% [w/w] hydrogen peroxide vapor, mean of batches 1-3
Procedure: (§8) In this example, cannabis inflorescence (200 mg) was thoroughly sterilized, then inoculated by soaking in 30 ml of microbial suspension, using each of the microbes in the amounts described in table 7 below, including a microbe mix, consisting of a mixture of all 4 microbes in the table.
(§9) After soaking each sample of inflorescence in the respective microbial suspension, each sample was air dried in a laminar flow dryer overnight for 18 hours and refrigerated until sterilization was initiated. Inflorescence was sterilized 24, 48 and 72 hours post inoculation, designated batch 1, batch 2 and batch 3, respectively. Microbial load analysis was performed after each sterilization day. Samples were also inoculated, and not sterilized, to serve as controls. A saline solution was applied to some of the samples instead of a microbial suspension, to serve as a control.
(§10) Analysis of microbial count was performed to samples before and after sterilization, and each microbe count was determined using sub-samples of […] each from each sample, and was performed in triplicate. The sub-samples were ground in 20 ml of saline solution, seeded in a petri dish with agar, which were then incubated at 37° C. for 48 hours, for counting of colonies, to determine number of colony forming units (CFU) per cannabis sample. Logarithmic reduction of pathogen as compared to non-sterilized sample was determined.
(§11) Samples of cannabis inflorescence (200 mg) were introduced into a vacuum chamber in either a top tray or a middle tray. The top tray was located in the uppermost location in the chamber, where the highest temperature is measured. The temperature was set to be maintained at 50° C., however, due to the fact that heat rises within the chamber, and that sterilant solution was introduced to the chamber as a vapor having a temperature of about 140-150° C., in some of the experiments the temperature in the uppermost chamber reached 54° C.±1° C. and in some 58° C.±2° C. Two or three pulses of disinfection were performed for each sample, and the results are described in Table 8. In each pulse, pressure was reduced to 3±2 mbar. […] Then, air was added and pressure was maintained at 500 mbar for 6 minutes at that pressure. The air was then removed from the chamber and the pressure reduced to 3±2 mbar. This process constitutes one pulse. One or two additional pulses were performed for samples, for a total of two pulses per sample, or three pulses per sample. In the final pulse, after initiating a vacuum, air was then introduced and the chamber was […] to a pressure of 1 atmosphere.
(§12) For each pathogen, mean log reduction was calculated by log10 transformation of CFU values, analyzing each microbial treatment process separately. Sterilization processes were compared with a 1-way ANOVA on log transformed data.

E. Coli = settings: 15% [w/w] hydrogen peroxide vapor, mean of batches 1-3
Procedure: as §8, §9, §10, §11, §12

Candida albicans = settings: for mean log reduction: 15% [w/w] hydrogen peroxide vapor, mean of batches 1-3
Procedure: as §8, §9, §10, §11, §12

Aspergillus brasiliensis = settings: for mean log reduction: 15% [w/w] hydrogen peroxide vapor, mean of batches 1-3
Procedure: as §8, §9, §10, §11, §12

Microbe mix (all 4) = settings: 15% [w/w] hydrogen peroxide vapor, mean of batches 1-3
Procedure: as §8, §9, §10, §11, §12

[4] = Preheat (40° C. for 5 minutes), one pulse
[5] = Preheat (40° C. for 5 minutes), two pulses

OO [hydrogen peroxide]
TC (total count [1]; sample weight 100 gr): 11,000 cfu/ml | TC (total count [1]; sample weight 300 gr): 48,000 cfu/ml | Y&M (yeasts & molds; sample weight 100 gr): 100 cfu/ml | Y&M (yeasts & molds; sample weight 300 gr): 30 cfu/ml | Total Count (total count [2]; No preheat, one pulse): 5,556 cfu/ml | Total Count Fold-Reduction (total count [2]; No preheat, one pulse): 243 | Total Count (total count [2]; No preheat, two pulses): 3,082 cfu/ml | Total Count Fold-Reduction (total count [2]; No preheat, two pulses): 438 | Total Count (total count [2]; [4]): 2,316 cfu/ml | Total Count (total count [2]; [5]): 1,028 cfu/ml | Total Count Fold-Reduction (total count [2]; Preheat, one pulse): 583 | Total Count Fold-Reduction (total count [2]; Preheat, two pulses): 1,313 | decontamination, reduction of microbes (total count [2]; pre-heating stage and two sterilant pulses combined): over 3 orders of magnitude | Yeast & Mold (Yeast & Mold; No preheat, one pulse): 19,828 cfu/ml | Yeast & Mold Fold-Reduction (Yeast & Mold; No preheat, one pulse): 58 | Yeast & Mold (Yeast & Mold; No preheat, two pulses): 3,249 cfu/ml | Yeast & Mold Fold-Reduction (Yeast & Mold; No preheat, two pulses): 354 | Yeast & Mold (Yeast & Mold; [4]): 3,433 cfu/ml | Yeast & Mold (Yeast & Mold; [5]): 415 cfu/ml | Yeast & Mold Fold-Reduction (Yeast & Mold; Preheat, one pulse): 335 | Yeast & Mold Fold-Reduction (Yeast & Mold; Preheat, two pulses): 2,770 | Total pathogen Count (Total pathogen; 50% H2O2, 2 pulses): 8,033 | Fold-Reduction (Total pathogen; 50% H2O2, 2 pulses): 61 | Yeast & Molds Count (Yeast & Molds; 50% H2O2, 2 pulses): 2,492 | Y&M (yeast and mold): 2,600 cfu/ml and 2,500 cfu/ml | TC (total count [3]; 30° C. 40 ml, 200 g inflorescence): 31,000 cfu/ml | TC (total count [3]; 40° C. 40 ml + 1 m + Vent700, listed as H2O2): 12,000 cfu/ml and 19,000 cfu/ml | TC (total count [3]; 40° C. 40 ml, listed as H2O2): 15,000 cfu/ml and 10,000 cfu/ml | mean log reduction (Pseudomonas aeruginosa; 2 pulses, Middle tray): 3.7 | mean log reduction (Pseudomonas aeruginosa; 2 pulses, Top tray): 5.3 | mean log reduction (Pseudomonas aeruginosa; 3 pulses, Middle tray): 4.7 | mean log reduction (Pseudomonas aeruginosa; 3 pulses, Top tray): 7.2 | mean log reduction (E. Coli; 2 pulses, Middle tray): 3.5 | mean log reduction (E. Coli; 2 pulses, Top tray): 3.5 | mean log reduction (E. Coli; 3 pulses, Middle tray): 4.3 | mean log reduction (E. Coli; 3 pulses, Top tray): 4.8 | mean log reduction (Candida albicans; 2 pulses, Middle tray): 2.8 | mean log reduction (Candida albicans; 2 pulses, Top tray): 6.3 | mean log reduction (Candida albicans; 3 pulses, Middle tray): 6.0 | mean log reduction (Candida albicans; 3 pulses, Top tray): 6.3 | reduction in microbial count (Candida albicans; top tray, both 2 and 3 pulses): ≥ 6 fold | mean log reduction (Aspergillus brasiliensis; 2 pulses, Middle tray): 2.0 | mean log reduction (Aspergillus brasiliensis; 2 pulses, Top tray): 3.3 | mean log reduction (Aspergillus brasiliensis; 3 pulses, Middle tray): 2.2 | mean log reduction (Aspergillus brasiliensis; 3 pulses, Top tray): 3.3 | reduction in microbial count after treatment (Aspergillus brasiliensis; sterilized at 24 hours post inoculation): 5 log | mean log reduction (Microbe mix (all 4); 2 pulses, Middle tray): 2.8 | mean log reduction (Microbe mix (all 4); 2 pulses, Top tray): 5.5 | mean log reduction (Microbe mix (all 4); 3 pulses, Middle tray): 5.1 | mean log reduction (Microbe mix (all 4); 3 pulses, Top tray): 7.0

O=c1nc([O-])n(Cl)c(=O)n1Cl.[Na+] [NaDCC, Sodium dichloroisocyanurate]
Total pathogen Count (Total pathogen; NaDCC 1% [w/w], 1 pulse): 35,100 | Fold-Reduction (Total pathogen; NaDCC 1% [w/w], 1 pulse): 14 | Total pathogen Count (Total pathogen; NaDCC 1% [w/w], 2 pulses): 17,900 | Fold-Reduction (Total pathogen; NaDCC 1% [w/w], 2 pulses): 27 | Total pathogen Count (Total pathogen; NaDCC 2% [w/w], 1 pulse): 24,500 | Fold-Reduction (Total pathogen; NaDCC 2% [w/w], 1 pulse): 20 | Total pathogen Count (Total pathogen; NaDCC 2% [w/w], 2 pulses): 11,075 | Fold-Reduction (Total pathogen; NaDCC 2% [w/w], 2 pulses): 44 | Total pathogen Count (Total pathogen; NaDCC 5% [w/w], 1pulse): 32,667 | Fold-Reduction (Total pathogen; NaDCC 5% [w/w], 1pulse): 15 | Total pathogen Count (Total pathogen; NaDCC 5% [w/w], 2 pulses): 40,833 | Fold-Reduction (Total pathogen; NaDCC 5% [w/w], 2 pulses): 12 | Yeast & Molds Count (Yeast & Molds; NaDCC 1% [w/w], 1 pulse): 10,857 | Yeast & Molds Count (Yeast & Molds; NaDCC 1% [w/w], 2 pulses): 5,553 | Yeast & Molds Count (Yeast & Molds; NaDCC 2% [w/w], 1 pulse): 7,600 | Yeast & Molds Count (Yeast & Molds; NaDCC 2% [w/w], 2 pulses): 3,436 | Yeast & Molds Count (Yeast & Molds; NaDCC 5% [w/w], 1pulse): 10,133 | Yeast & Molds Count (Yeast & Molds; NaDCC 5% [w/w], 2 pulses): 12,667
